Values of other authors, collected in US20070281007A1, “Mucoadhesive Oral Formulations of High Permeability, High Solubility Drugs” (priority 2004, published 2007).
Like-named read-outs stand apart in the source and are kept apart here.

Row | SMILES | bioavailability (at best, 900 mg dose, given three times a day) | bioavailability (in vivo)
1 | NCC1(CC(=O)O)CCCCC1 [gabapentin] | 60% | –
2 | CC(C)[C@H](N)C(=O)OCCOCn1cnc2c(=O)[nH]c(N)nc21 [valacyclovir] | – | ~50%
